Results published in ChEMBL document CHEMBL4118182, “Straightforward hit identification approach in fragment-based discovery of bromodomain-containing protein 4 (BRD4) inhibitors” (Bioorg Med Chem, 2018).
Each block holds one compound with its values, some of them ahead of it. Active and inactive are the calls of the source. No cut-off for these calls is given here.

What was measured:
[1] = molecular target: Carbonic anhydrase 2 (Bos taurus) (UniProt P00921); assay: Binding affinity to bovine carbonic anhydrase-2 assessed as change in melting temperature at 20 uM by differential scanning fluorimetry
[2] = molecular target: T1, Bromodomain-containing protein 4 (Homo sapiens, UniProt O60885); assay: Inhibition of recombinant human N-terminal His6-tagged BRD4 at 20 uM by TR-FRET assay relative to control
[3] = Solubility of the compound in DMSO at 200 mM; assay type: physicochemical; conditions: 200000 µM
[4] = molecular target: T1, Bromodomain-containing protein 4; assay: Binding affinity to recombinant human N-terminal His6-tagged BRD4 bromodomain 1 (44 to 168 residues) expressed in Escherichia coli BL21(DE3) assessed as change in melting temperature at 10 uM by differential scanning fluorimetry
[5] = Solubility of the compound in aqueous buffer at 1 mM; assay type: physicochemical; conditions: 1000 µM
[6] = molecular target: T1, Bromodomain-containing protein 4; assay: Binding affinity to recombinant human N-terminal His6-tagged BRD4 bromodomain 1 (44 to 168 residues) expressed in Escherichia coli BL21(DE3) assessed as increase in melting temperature at 50 to 200 uM by differential scanning fluorimetry
[7] = molecular target: T1, Bromodomain-containing protein 4; assay: Binding affinity to recombinant human N-terminal His6-tagged BRD4 bromodomain 1 (44 to 168 residues) expressed in Escherichia coli BL21(DE3) assessed as change in melting temperature at 40 uM by differential scanning fluorimetry
[8] = molecular target: T1, Bromodomain-containing protein 4; assay: Binding affinity to recombinant human N-terminal His6-tagged BRD4 bromodomain 1 (44 to 168 residues) expressed in Escherichia coli BL21(DE3) assessed as change in melting temperature at 20 uM by differential scanning fluorimetry
[9] = molecular target: T1, Bromodomain-containing protein 4; assay: Inhibition of recombinant human N-terminal His6-tagged BRD4 by TR-FRET assay

Chain of Carbonic anhydrase 2 (Bos taurus) (P00921 2-260 limits assumed): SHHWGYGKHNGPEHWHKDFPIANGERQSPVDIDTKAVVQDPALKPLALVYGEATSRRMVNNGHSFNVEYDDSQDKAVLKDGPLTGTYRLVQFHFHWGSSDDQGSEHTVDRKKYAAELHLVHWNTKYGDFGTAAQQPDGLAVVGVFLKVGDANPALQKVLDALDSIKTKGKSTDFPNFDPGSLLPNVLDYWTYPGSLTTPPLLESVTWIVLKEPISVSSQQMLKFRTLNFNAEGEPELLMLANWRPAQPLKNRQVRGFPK

SMILES: CC1(C)C(=O)Nc2cc(C(=O)O)ccc21
deltaTm [1]: > 0.5 K
ΔTm [8]: 2.1 °C
solubility [3]: Soluble
deltaTm [4]: > 0.5 K
solubility [5]: Soluble
Activity [6]: Active
deltaTm [7]: > 1 K

SMILES: COc1cccc(C(=O)Nc2ccc3c(c2)n(C)c(=O)n3C)c1
IC50 [9]: 15.8 µM

SMILES: COCCOc1ccccc1CNc1ccc2c(c1)n(C)c(=O)n2C
deltaTm [1]: > 0.5 K
ΔTm [8]: 1.39 °C
inhibition [2]: 63.4%
solubility [3]: Soluble
deltaTm [4]: > 0.5 K
solubility [5]: Soluble
Activity [6]: Active
deltaTm [7]: > 1 K
IC50 [9]: 21 µM

SMILES: COc1ccc(OC)c(CCC(=O)Nc2ccc3c(c2)n(C)c(=O)n3C)c1
deltaTm [1]: > 0.5 K
ΔTm [8]: 0.82 °C
inhibition [2]: 67%
solubility [3]: Soluble
deltaTm [4]: > 0.5 K
solubility [5]: Soluble
Activity [6]: Active
deltaTm [7]: > 1 K
IC50 [9]: 60 µM

SMILES: CC1CCCC(C)N1C(=O)CSc1nc2sc3c(c2c(=O)n1C)CCCC3 (centres undefined)
deltaTm [1]: > 0.5 K
ΔTm [8]: -1.85 °C
inhibition [2]: 68.2%
solubility [3]: Soluble
deltaTm [4]: > 0.5 K
solubility [5]: Soluble
Activity [6]: inactive
deltaTm [7]: > 1 K
IC50 [9]: > 100 µM

SMILES: O=C1C(=O)N(CCCOc2ccccc2)c2ccc(Cl)cc21
deltaTm [1]: > 0.5 K
ΔTm [8]: -2.63 °C
inhibition [2]: 65.9%
solubility [3]: Soluble
deltaTm [4]: > 0.5 K
solubility [5]: Soluble
Activity [6]: inactive
deltaTm [7]: > 1 K
IC50 [9]: > 100 µM

SMILES: Cn1c(=O)n(C)c2cc(NC(=O)c3cc4c(s3)CCC4)ccc21
deltaTm [1]: > 0.5 K
ΔTm [8]: 1.88 °C
inhibition [2]: 76.5%
solubility [3]: Soluble
deltaTm [4]: > 0.5 K
solubility [5]: Soluble
Activity [6]: Active
deltaTm [7]: > 1 K
IC50 [9]: 1.9 µM

SMILES: Cc1ccc(S(=O)(=O)Nc2ccc3c(c2)n(C)c(=O)n3C)c(C)c1
IC50 [9]: 2.5 µM

SMILES: Cn1cc(NC(=O)c2occc2COc2ccccc2)ccc1=O
deltaTm [1]: > 0.5 K
ΔTm [8]: 1.2 °C
inhibition [2]: 64.4%
solubility [3]: Soluble
deltaTm [4]: > 0.5 K
solubility [5]: Soluble
Activity [6]: Active
deltaTm [7]: > 1 K
IC50 [9]: 3 µM

SMILES: Cc1ccc(C(=O)Nc2ccc3nc(N4CCCC4)sc3c2)cc1[N+](=O)[O-]
deltaTm [1]: > 0.5 K
ΔTm [8]: 2.01 °C
inhibition [2]: 72.4%
solubility [3]: Soluble
deltaTm [4]: > 0.5 K
solubility [5]: Soluble
Activity [6]: Active
deltaTm [7]: > 1 K
IC50 [9]: > 100 µM

Results, then the compound that gave them:

deltaTm [1]: > 0.5 K
inhibition [2]: inactive
solubility [3]: Soluble
deltaTm [4]: > 0.5 K
solubility [5]: Soluble
Activity [6]: Active
deltaTm [7]: > 1 K
SMILES: Cc1nc(-c2cccc(N)c2)cs1

deltaTm [1]: > 0.5 K
ΔTm [8]: 1.7 °C
inhibition [2]: Active
solubility [3]: Soluble
deltaTm [4]: > 0.5 K
solubility [5]: Soluble
Activity [6]: Active
deltaTm [7]: > 1 K
SMILES: Nc1ccc2nc(N3CCCC3)sc2c1

deltaTm [1]: > 0.5 K
ΔTm [8]: 2.8 °C
solubility [3]: Soluble
deltaTm [4]: > 0.5 K
solubility [5]: Soluble
Activity [6]: Active
deltaTm [7]: > 1 K
SMILES: CC1Oc2ccc(N)cc2NC1=O (centres undefined)

deltaTm [1]: > 0.5 K
ΔTm [8]: 1.39 °C
inhibition [2]: 72.7%
solubility [3]: Soluble
deltaTm [4]: > 0.5 K
solubility [5]: Soluble
Activity [6]: Active
deltaTm [7]: > 1 K
IC50 [9]: 24 µM
SMILES: Cc1cc2cc(NC(=O)c3sc4nc(C(F)(F)F)ccc4c3C)ccc2[nH]1

deltaTm [1]: > 0.5 K
ΔTm [8]: 1.32 °C
inhibition [2]: 63.3%
solubility [3]: Soluble
deltaTm [4]: > 0.5 K
solubility [5]: Soluble
Activity [6]: Active
deltaTm [7]: > 1 K
IC50 [9]: 27 µM
SMILES: Cc1cc2cc(NC(=O)c3ccc(Oc4ccc(C(F)(F)F)cn4)cc3)ccc2[nH]1

deltaTm [1]: > 0.5 K
ΔTm [8]: 1.4 °C
inhibition [2]: Active
solubility [3]: Soluble
deltaTm [4]: > 0.5 K
solubility [5]: Soluble
Activity [6]: Active
deltaTm [7]: > 1 K
SMILES: Cc1cc2cc(N)ccc2[nH]1

deltaTm [1]: > 0.5 K
ΔTm [8]: 1.2 °C
inhibition [2]: 80.5%
solubility [3]: Soluble
deltaTm [4]: > 0.5 K
solubility [5]: Soluble
Activity [6]: Active
deltaTm [7]: > 1 K
IC50 [9]: 7.4 µM
SMILES: Cc1nc(-c2cccc(NC(=O)c3ccc4[nH]c(C)c(C)c4c3)c2)cs1

deltaTm [1]: > 0.5 K
ΔTm [8]: 2.8 °C
inhibition [2]: Active
solubility [3]: Soluble
deltaTm [4]: > 0.5 K
solubility [5]: Soluble
Activity [6]: Active
deltaTm [7]: > 1 K
SMILES: Cn1c(=O)n(C)c2cc(N)ccc21

deltaTm [1]: > 0.5 K
ΔTm [8]: -2.1 °C
solubility [3]: Soluble
deltaTm [4]: > 0.5 K
solubility [5]: Soluble
Activity [6]: Active
deltaTm [7]: > 1 K
SMILES: Cc1nc2ccc(C(=O)O)cc2o1
